{
  "source": "patent US11576381B2",
  "about": "“Composition and a method of using the composition to increase wheat yield” (priority 2019, dated 2023)",
  "key": {"grasses": {"test_system": "grasses", "experiment": "Grass control in QPE-tolerant wheat treated with herbicides", "format": "in vivo", "description": "(§1) Yield of QPE-tolerant wheat in bushels per acre was measured under the following conditions: where no QPE was applied, where QPE was applied alone, where one or more broadleaf herbicides were applied, and where a combination of a QPE source and a broadleaf herbicide were applied together. For each test condition, the level of both grass control and broadleaf control was recorded. Finally, the application rate of each active substance was recorded. One QPE source is Aggressor™ which comprises Quizalofop-P-ethyl 10.3%."}, "broadleaf weeds": {"test_system": "broadleaf weeds", "experiment": "Broadleaf weed control in QPE-tolerant wheat treated with herbicides", "format": "in vivo", "description": "as §1"}, "QPE-tolerant wheat": {"test_system": "QPE-tolerant wheat", "experiment": "Yield of QPE-tolerant wheat in bushels per acre", "format": "in vivo", "description": "as §1"}, "[1]": {"settings": "soil; cited from earlier work"}, "[2]": {"settings": "Treatment B Rate/Acre 1.00 lb ai/acre"}, "[3]": {"settings": "Treatment B Rate/Acre .50 lb ai/acre"}, "[4]": {"settings": "Treatment B Rate/Acre 3 fl oz/acre"}, "[5]": {"settings": "Treatment B Rate/Acre 4 fl oz/acre"}, "[6]": {"settings": "Treatment B Rate/Acre 5 fl oz/acre"}, "[7]": {"settings": "Treatment B Rate/Acre 2 oz/acre"}, "[8]": {"settings": "Treatment B Rate/Acre 4.75/acre"}, "[9]": {"settings": "Treatment B Rate/Acre .90 oz/acre"}, "[10]": {"settings": "Treatment B Rate/Acre .60 oz/acre"}, "[11]": {"settings": "Treatment B Rate/Acre .66 oz/acre"}, "[12]": {"settings": "Treatment B Rate/Acre .30 oz/acre"}},
  "note": "Several values for one entry are separate records, joined by “and”; a condition that tells them apart may be missing. Equal values may be shown once.",
  "data": [
    {"compound": "CNC.O=C(O)COc1ccc(Cl)cc1Cl", "note": "[2,4-D Amine]", "values": [
      {"measurement": "Grass Control", "setting": "grasses; [2]", "result": 0, "unit": "%"},
      {"measurement": "Grass Control", "setting": "grasses; [3]", "result": 0, "unit": "%"},
      {"measurement": "Broadleaf Weed Control", "setting": "broadleaf weeds; [2]", "result": 90, "unit": "%"},
      {"measurement": "Broadleaf Weed Control", "setting": "broadleaf weeds; [3]", "result": 75, "unit": "%"},
      {"measurement": "Yield", "setting": "QPE-tolerant wheat; [2]", "result": 56.8, "unit": "Bu/acre"},
      {"measurement": "Yield", "setting": "QPE-tolerant wheat; [3]", "result": 55.7, "unit": "Bu/acre"}
    ]},
    {"compound": "COc1c(Cl)ccc(Cl)c1C(=O)O", "note": "[Dicamba]", "values": [
      {"measurement": "Grass Control", "setting": "grasses; [4]", "result": 0, "unit": "%"},
      {"measurement": "Grass Control", "setting": "grasses; [5]", "result": 0, "unit": "%"},
      {"measurement": "Grass Control", "setting": "grasses; [6]", "result": 0, "unit": "%"},
      {"measurement": "Broadleaf Weed Control", "setting": "broadleaf weeds; [4]", "result": 90, "unit": "%"},
      {"measurement": "Broadleaf Weed Control", "setting": "broadleaf weeds; [5]", "result": 93, "unit": "%"},
      {"measurement": "Broadleaf Weed Control", "setting": "broadleaf weeds; [6]", "result": 96, "unit": "%"},
      {"measurement": "Yield", "setting": "QPE-tolerant wheat; [4]", "result": 56.7, "unit": "Bu/acre"},
      {"measurement": "Yield", "setting": "QPE-tolerant wheat; [5]", "result": 57.9, "unit": "Bu/acre"},
      {"measurement": "Yield", "setting": "QPE-tolerant wheat; [6]", "result": 58.4, "unit": "Bu/acre"}
    ]},
    {"compound": "COc1nn(C(=O)NS(=O)(=O)c2ccccc2OC(F)(F)F)c(=O)n1C", "note": "[Flucarbazone]", "values": [
      {"measurement": "Grass Control", "setting": "grasses; [7]", "result": 65, "unit": "%"},
      {"measurement": "Broadleaf Weed Control", "setting": "broadleaf weeds; [7]", "result": 55, "unit": "%"},
      {"measurement": "Yield", "setting": "QPE-tolerant wheat; [7]", "result": 67.3, "unit": "Bu/acre"}
    ]},
    {"compound": "CNC.Cc1cc(Cl)ccc1OCC(=O)O", "note": "[MCPA Amine]", "values": [
      {"measurement": "Grass Control", "setting": "grasses; [2]", "result": 0, "unit": "%"},
      {"measurement": "Grass Control", "setting": "grasses; [3]", "result": 0, "unit": "%"},
      {"measurement": "Broadleaf Weed Control", "setting": "broadleaf weeds; [2]", "result": 93, "unit": "%"},
      {"measurement": "Broadleaf Weed Control", "setting": "broadleaf weeds; [3]", "result": 78, "unit": "%"},
      {"measurement": "Yield", "setting": "QPE-tolerant wheat; [2]", "result": 56.9, "unit": "Bu/acre"},
      {"measurement": "Yield", "setting": "QPE-tolerant wheat; [3]", "result": 52.4, "unit": "Bu/acre"}
    ]},
    {"compound": "COc1cc(OC)nc(NC(=O)NS(=O)(=O)c2cc(CNS(C)(=O)=O)ccc2C(=O)O)n1", "note": "[Mesosulfuron]", "values": [
      {"measurement": "Grass Control", "setting": "grasses; [8]", "result": 35, "unit": "%"},
      {"measurement": "Broadleaf Weed Control", "setting": "broadleaf weeds; [8]", "result": 50, "unit": "%"},
      {"measurement": "Yield", "setting": "QPE-tolerant wheat; [8]", "result": 60.4, "unit": "Bu/acre"}
    ]},
    {"compound": "CCCOc1nn(C(=O)[N-]S(=O)(=O)c2ccccc2C(=O)OC)c(=O)n1C.[Na+]", "note": "[Propoxycarbazone]", "values": [
      {"measurement": "Grass Control", "setting": "grasses; [9]", "result": 45, "unit": "%"},
      {"measurement": "Broadleaf Weed Control", "setting": "broadleaf weeds; [9]", "result": 65, "unit": "%"},
      {"measurement": "Yield", "setting": "QPE-tolerant wheat; [9]", "result": 63.2, "unit": "Bu/acre"}
    ]},
    {"compound": "COc1nc(C)nc(NC(=O)NS(=O)(=O)c2ccccc2CCC(F)(F)F)n1", "note": "[Prosulfuron]", "values": [
      {"measurement": "Grass Control", "setting": "grasses; [10]", "result": 0, "unit": "%"},
      {"measurement": "Broadleaf Weed Control", "setting": "broadleaf weeds; [10]", "result": 85, "unit": "%"},
      {"measurement": "Yield", "setting": "QPE-tolerant wheat; [10]", "result": 59.2, "unit": "Bu/acre"}
    ]},
    {"compound": "COc1cc(OC)n2nc(NS(=O)(=O)c3c(C(F)(F)F)ccnc3OC)nc2n1", "note": "[Pyroxsulam]", "values": [
      {"measurement": "Grass Control", "setting": "grasses; [7]", "result": 70, "unit": "%"},
      {"measurement": "Broadleaf Weed Control", "setting": "broadleaf weeds; [7]", "result": 30, "unit": "%"},
      {"measurement": "Yield", "setting": "QPE-tolerant wheat; [7]", "result": 60.3, "unit": "Bu/acre"}
    ]},
    {"compound": "CCOC(=O)[C@@H](C)Oc1ccc(Oc2cnc3cc(Cl)ccc3n2)cc1", "note": "[Quizalofop-p-ethyl]", "values": [
      {"measurement": "Koc", "setting": "[1]", "result": "510 and 570"}
    ]},
    {"compound": "CCS(=O)(=O)c1nc2ccccn2c1S(=O)(=O)NC(=O)Nc1nc(OC)cc(OC)n1", "note": "[Sulfosulfuron]", "values": [
      {"measurement": "Grass Control", "setting": "grasses; [11]", "result": 55, "unit": "%"},
      {"measurement": "Broadleaf Weed Control", "setting": "broadleaf weeds; [11]", "result": 60, "unit": "%"}
    ]},
    {"compound": "COc1nc(C)nc(N(C)C(=O)NS(=O)(=O)c2ccccc2C(=O)O)n1", "note": "[Tribenuron]", "values": [
      {"measurement": "Grass Control", "setting": "grasses; [12]", "result": 0, "unit": "%"},
      {"measurement": "Broadleaf Weed Control", "setting": "broadleaf weeds; [12]", "result": 93, "unit": "%"},
      {"measurement": "Yield", "setting": "QPE-tolerant wheat; [12]", "result": 58.4, "unit": "Bu/acre"}
    ]}
  ]
}
